Where a SMILES comes first, the peptide text is derived from it. [ ]: non-standard residue; d: D form. Thr(SO3H) = C[C@@H](OS(=O)(=O)O)[C@H](N)C(=O)O; sY = N[C@@H](Cc1ccc(OS(=O)(=O)O)cc1)C(=O)O; NMeF = CN[C@@H](Cc1ccccc1)C(=O)O; Nle = CCCC[C@H](N)C(=O)O
Columns and labels:
[1] = target: T1, Bovine Striatum (Bos taurus, UniProt P79266); assay: In vitro receptor binding assay, inhibition of ³H-CCK-8-(SO₃H) binding to bovine striatum homogenate; details: ³H-CCK-8-(SO₃H) 0.15 nM, 30 min at 25° C; read-out: Bovine Striatum (IC₅₀ value)
T1 construct: tissue homogenate (striatum 0.26 mg protein in 2 ml final volume); from tissue; host or cells: bovine striatum homogenate (membrane pellet)
T1 sequence (P79266 1-454): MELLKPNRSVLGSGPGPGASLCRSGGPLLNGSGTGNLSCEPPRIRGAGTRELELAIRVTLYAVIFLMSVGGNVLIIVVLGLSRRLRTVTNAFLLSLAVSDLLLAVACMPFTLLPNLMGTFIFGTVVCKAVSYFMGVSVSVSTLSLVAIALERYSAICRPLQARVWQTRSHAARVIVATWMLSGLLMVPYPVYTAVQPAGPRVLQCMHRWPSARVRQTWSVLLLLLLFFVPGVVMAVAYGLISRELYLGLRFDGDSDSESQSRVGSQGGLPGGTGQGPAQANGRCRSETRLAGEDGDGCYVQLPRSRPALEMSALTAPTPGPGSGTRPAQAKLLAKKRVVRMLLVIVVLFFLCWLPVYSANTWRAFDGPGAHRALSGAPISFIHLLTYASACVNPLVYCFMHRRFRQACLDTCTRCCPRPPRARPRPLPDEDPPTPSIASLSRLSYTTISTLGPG
Experimental: (§1) The tissue was homogenized 2 x for approx. 15 sec. at 0°C using a Polytron homogenizer at a setting of 6. The tissue was isolated by centrifugation at 48,000 x g for 10 min. at 0°C. […] Samples were incubated for 30 min. at 25° C and the incubation terminated by pouring the mixture onto a pre-wet Whatman GF/B filter on a Sandbeck Vacuum Filtration Manifold. The incubation tubes were washed with 2 x 3 ml of ice-cold HEPES Buffer #2 and the wash filtered through the GF/B filter. The filter was air dried for 10 min. and then placed in a scintillation vial with 12 ml of Beckman HP/b Ready-Solv scintillation cocktail. The vials were shaken for 2 hours and then counted using a Beckman Model 7800 liquid scintillation spectrometer.

[2] = target: T2, Rat Pancreas (Rattus norvegicus, UniProt P30551); assay: In vitro receptor binding assay, inhibition of ³H-CCK-8-(SO₃H) binding to rat pancreas homogenate; details: ³H-CCK-8-(SO₃H) 0.15 nM, 30 min at 25° C; read-out: Rat Pancreas (IC₅₀ value)
T2 construct: pancreas 0.165 mg protein in 1 ml final volume; from tissue; host or cells: rat pancreas homogenate (membrane pellet)
T2 sequence (P30551 1-444): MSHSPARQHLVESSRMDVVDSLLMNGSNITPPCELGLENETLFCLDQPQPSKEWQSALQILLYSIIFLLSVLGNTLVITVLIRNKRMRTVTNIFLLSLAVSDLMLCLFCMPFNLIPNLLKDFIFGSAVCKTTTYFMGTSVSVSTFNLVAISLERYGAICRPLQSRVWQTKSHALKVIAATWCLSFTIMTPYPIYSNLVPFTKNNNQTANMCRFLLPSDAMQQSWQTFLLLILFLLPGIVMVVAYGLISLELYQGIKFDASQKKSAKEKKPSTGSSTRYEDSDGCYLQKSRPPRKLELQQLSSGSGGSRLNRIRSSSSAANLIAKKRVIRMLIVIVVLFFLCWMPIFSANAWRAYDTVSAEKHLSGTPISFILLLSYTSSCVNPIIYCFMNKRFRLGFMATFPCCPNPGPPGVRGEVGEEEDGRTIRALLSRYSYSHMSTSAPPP
Experimental: as §1

SMILES	IC50 [1] [µM]	IC50 [2] [µM]
CSCC[C@H](NC(=O)[C@H](Cc1ccc(OS(=O)(=O)O)cc1)NC(=O)[C@@H](N)CC(=O)O)C(=O)NCC(=O)N[C@@H](Cc1c[nH]c2ccccc12)C(=O)N[C@@H](CCSC)C(=O)N[C@@H](CC(=O)O)C(=O)N[C@@H](Cc1ccccc1)C(N)=O [CCK-8, reference compound]	0.001 to 0.0032	0.001 to 0.0046
CCCC[C@H](NC(=O)[C@H](Cc1ccc(OS(=O)(=O)O)cc1)NC(C)=O)C(=O)NCC(=O)N[C@@H](Cc1c[nH]c2ccccc12)C(=O)N[C@@H](CCCC)C(=O)N[C@H](C(=O)N(C)[C@@H](Cc1ccccc1)C(N)=O)[C@@H](C)OS(=O)(=O)O [Example 1, Ac-Tyr(SO₃H)-Nle-Gly-Trp-Nle-Thr(SO₃H)-N-methyl-Phe-NH₂] (Ac-[sY][Nle]GW[Nle][Thr(SO3H)][NMeF]-NH2)	0.245	0.00014
CSCC[C@H](NC(=O)[C@H](Cc1c[nH]c2ccccc12)NC(=O)CNC(=O)[C@H](Cc1ccc(OS(=O)(=O)O)cc1)NC(C)=O)C(=O)N[C@H](C(=O)N(C)[C@@H](Cc1ccccc1)C(N)=O)[C@@H](C)OS(=O)(=O)O [Example 2, Ac-Tyr(SO₃H)-Gly-Trp-Met-Thr(SO₃H)-N-methyl-Phe-NH₂] (Ac-[sY]GWM[Thr(SO3H)][NMeF]-NH2)	1.6	0.07

Source: patent EP0296574A2, “Cholecystokinin analogs for controlling appetite” (F. HOFFMANN-LA ROCHE AG, priority 1987, dated 1988)
